Assay results published in patent US20260191970A1, “CRBN LIGAND, PREPARATION METHOD THEREFOR, AND APPLICATION” (Shenzhen Zhongge Biological Technology Co., Ltd., priority 2023, published 2026).

These compounds were tested against T1, Human Cereblon WT GST-tagged protein (Homo sapiens, UniProt Q96SW2) (assay: CRBN binding assay (HTRF method)). Settings: competition with Thalidomide-Red, 25° C. 1 h.
T1 construct: purchased CISBIO 64BDCRBNPEG
Description: In this experiment, the binding interaction between compounds and CRBN was detected, and based on the IC50 values, the affinity of the compounds for the CRBN target was evaluated.
The affinity of the compounds for CRBN was detected using CEREBLON BINDING KITS (CISBIO, 64 BDCRBNPEG) containing diluent #9, Human Cereblon WT GST-tagged protein, GST Eu Cryptate Antibody, and Thalidomide-Red.
20 nL of each of the compounds was transferred to a 384-well plate (PerkinElmer, 6007299) using an Ehco650 apparatus (Beckman, 650). 5 μL of 1× diluent #9 (CISBIO, 64BDCRBNPEG) was added to the 384-well plate, and then 5 μL of 1× Human Cereblon WT GST-tagged protein (CISBIO, 64BDCRBNPEG) was added. The plate was sealed with a plate sealer, shaken on a plate shaker (Kylin-Bell, MH-2) for 10 s, centrifuged at 1000 rpm for 1 min, and incubated at 25° C. for 5 min. 5 μL of 1×GST Eu Cryptate Antibody (CISBIO, 64BDCRBNPEG) and 5 μL of 1× Thalidomide-Red (CISBIO, 64BDCRBNPEG) were added to the 384-well plate. The plate was sealed with a plate sealer, shaken for 30 s, centrifuged at 1000 rpm for 1 min, and incubated at 25° C. for 1 h. The signals at 665 nm and 620 nm were measured using Envision (PerkinElmer, 2105-0020).
The IC50 values for compound activity were calculated using Graphpad Prism9 software based on the compound concentrations and the ratio of the signals at 665 nm and 620 nm. Calculation formula: […]

T1 sequence (Q96SW2 whole entry): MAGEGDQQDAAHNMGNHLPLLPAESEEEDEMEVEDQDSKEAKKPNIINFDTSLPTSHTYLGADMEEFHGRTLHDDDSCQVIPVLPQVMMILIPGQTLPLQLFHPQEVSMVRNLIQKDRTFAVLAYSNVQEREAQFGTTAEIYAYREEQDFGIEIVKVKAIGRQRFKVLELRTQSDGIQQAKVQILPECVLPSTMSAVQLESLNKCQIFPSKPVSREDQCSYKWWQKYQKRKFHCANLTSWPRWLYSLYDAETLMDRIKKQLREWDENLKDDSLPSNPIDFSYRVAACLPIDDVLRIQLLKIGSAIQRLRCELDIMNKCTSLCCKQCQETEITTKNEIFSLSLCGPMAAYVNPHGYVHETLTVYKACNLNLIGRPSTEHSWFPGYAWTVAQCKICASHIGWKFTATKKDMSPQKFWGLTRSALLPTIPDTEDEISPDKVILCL

| IC50 | SMILES |
| --- | --- |
| ≤ 2000 nM | CC/C(NC1CCC(=O)NC1=O)=C1/C(=O)N(C)c2ccc(N)cc21 (racemic) [Compound 6] |
| ≤ 2000 nM | C/C(NC1CCC(=O)NC1=O)=C1/C(=O)Nc2ccc(Br)cc21 (stereo not shown) [Compound 1] |
| 2000 to 5000 nM | C/C(NC1CCC(=O)NC1=O)=C1/C(=O)N(C)c2ccc(N)cc21 (stereo not shown) [Compound 4] |
| ≤ 2000 nM | CC/C(NC1CCC(=O)NC1=O)=C1/C(=O)N(C)c2ccc(N)cc21 (single isomer, unassigned) [Compound 6-A] |
